test system: HSP-90 (heat shock protein 90); test: Determination of affinity for HSP-90 (elution from purine affinity column); settings: relative binding affinity to HSP-90; also: key: +++: very high; ++: high; +: moderate
Description: Affinity of test compounds for HSP-90 is determined as follows: Protein mixtures obtained from a variety of organ tissues (for example: spleen, liver and lung) are reversibly bound to a purine affinity column to capture purine-binding proteins, especially HSP-90. […] The elution profile of Formula I compounds is determined by 1-dimensional SDS polyacrylamide gel electrophoresis. Gels are stained with a fluorescent stain such as sypro ruby (a highly sensitive fluorescent protein stain that can readily detect less than 1 fmol of total protein, i.e., less than 0.04 ng for a 40 kDa protein) or silver nitrate. The gels are imaged using a standard flat bed gel imager and the amount of protein estimated by densitometry. The percent of HSP-90 protein eluted from the column at each concentration is determined and IC50 values are calculated from these estimates.

Row | Structure (SMILES) | Affinity
1 | CC(C)Cc1nn(-c2ccc3c(N)ncnc3c2)c2c1C(=O)CC(C)(C)C2 [Compound 87, 1-(4-aminoquinazolin-7-yl)-3-isobutyl-6,6-dimethyl-6,7-dihydro-1H-indazol-4(5H)-one] | +++
2 | CCCCSc1c(-n2cc(C)c3c2CC(C)CC3=O)ccc2c(N)ncnc12 (stereo not drawn) [Compound 72, 1-(4-amino-8-(butylthio)quinazolin-7-yl)-3,6-dimethyl-6,7-dihydro-1H-indol-4(5H)-one] | ++
3 | COCCCOc1c(-n2cc(C)c3c2CC(C)(C)CC3=O)ccc2c(N)ncnc12 [Compound 60, 1-(4-amino-8-(3-methoxypropoxy)quinazolin-7-yl)-3,6,6-trimethyl-6,7-dihydro-1H-indol-4(5H)-one] | +++
4 | Cc1cn(-c2ccc3c(Cl)nccc3c2)c2c1C(=O)CC(C)(C)C2 [Compound 44, 1-(1-chloroisoquinolin-6-yl)-3,6,6-trimethyl-6,7-dihydro-1H-indol-4(5H)-one] | +
5 | COc1cc(-n2cc(C)c3c2CC(C)(C)CC3=O)cc2ncnc(N)c12 [Compound 76, 1-(4-amino-5-methoxyquinazolin-7-yl)-3,6,6-trimethyl-6,7-dihydro-1H-indol-4(5H)-one] | ++
6 | Cc1cn(-c2ccc3c(N)ncc(C(=O)O)c3c2)c2c1C(=O)CC(C)(C)C2 [Compound 106, 1-amino-6-(3,6,6-trimethyl-4-oxo-4,5,6,7-tetrahydro-1H-indol-1-yl)isoquinoline-4-carboxylic acid] | ++
7 | Cc1nn(-c2ccc3c(N)ncnc3c2F)c2c1C(=O)CC(C)(C)C2 [Compound 95, 1-(4-amino-8-fluoroquinazolin-7-yl)-3,6,6-trimethyl-6,7-dihydro-1H-indazol-4(5H)-one] | +++

test system: PC-3; test: PC-3 cell proliferation assay (WST-1); assay type: cell-based; settings: Homo sapiens; inhibitory activity against PC-3 cell proliferation
Description: A panel of cancer cell lines is obtained from the DCTP Tumor Repository, National Cancer Institute (Frederick, Md.) or ATCC (Rockville, Md.). Cell cultures are maintained in Hyclone RPMI 1640 medium (Logan, Utah) supplemented with 10% fetal bovine serum and 20 mM HEPES buffer, final pH 7.2, at 37° C. with a 5% CO2 atmosphere. Cultures are maintained at sub-confluent densities. Human umbilical vein endothelial cells (HUVEC) are purchased from Clonetics, a division of Cambrex (Walkersville, Md.). Cultures are established from cryopreserved stocks using Clonetics EGM-2 medium supplemented with 20 mM HEPES, final pH 7.2, at 37° C. with a 5% CO2 atmosphere.
For proliferation assays, cells are seeded with the appropriate medium into 96 well plates at 1,000-2,500 cells per well, depending on the cell line, and are incubated overnight. The following day, test compound, DMSO solution (negative control), or Actinomycin D (positive control) is added to the appropriate wells as 10× concentrated stocks prepared in phosphate buffered saline. The cell plates are then incubated for an additional 2-5 days, depending on the cell line, to allow proliferation to occur. To measure cell density, 50 μL of WST-1 solution (Roche Applied Science, IN) diluted 1:5 in phosphate buffered saline is added to each well, and the cells incubated for an additional 1-5 hrs., again depending on the cell line. Optical density is determined for each well at […] using a Tecan GeniosPro plate reader (RTP, NC). The percentage of cell growth is determined by comparing the cell growth in the presence of test compounds to the cells treated with DMSO vehicle (control, 100% growth) and cells treated with Actinomycin D (10 μM, 0% growth). […]

Row | IC50 [µM] | Structure (SMILES)
8 | 5 to 50 | Cc1cn(-c2ccc3c(N)ncc(N)c3c2)c2c1C(=O)CC(C)(C)C2 [Compound 121, 1-(1,4-diaminoisoquinolin-6-yl)-3,6,6-trimethyl-6,7-dihydro-1H-indol-4(5H)-one]
9 | 0.5 to 5 | Cc1cn(-c2ccc3c(N)ncnc3c2F)c2c1C(=O)CC(C)(C)C2 [Compound 43, 1-(4-amino-8-fluoroquinazolin-7-yl)-3,6,6-trimethyl-6,7-dihydro-1H-indol-4(5H)-one]
10 | < 0.5 | Cc1cn(-c2cnc3c(N)nc(N)nc3c2)c2c1C(=O)CC(C)(C)C2 [Compound 139, 1-(2,4-diaminopyrido[3,2-d]pyrimidin-7-yl)-3,6,6-trimethyl-6,7-dihydro-1H-indol-4(5H)-one]
11 | 0.5 to 5 | Cc1cn(-c2ccc3c(N)ncnc3c2SCCNC(C)(C)C)c2c1C(=O)CC(C)(C)C2 [Compound 110, 1-(4-amino-8-(2-(tert-butylamino)ethylthio)quinazolin-7-yl)-3,6,6-trimethyl-6,7-dihydro-1H-indol-4(5H)-one]
12 | 5 to 50 | Cc1cc2c(n1-c1cnc3c(N)ncnc3c1)CC(C)(C)CC2=O [Compound 38, 1-(4-aminopyrido[3,2-d]pyrimidin-7-yl)-2,6,6-trimethyl-6,7-dihydro-1H-indol-4(5H)-one]
13 | 5 to 50 | C/C(=N\O)c1cnc(N)c2ccc(-n3cc(C)c4c3CC(C)(C)CC4=O)cc12 [Compound 102, (E)-1-(1-amino-4-(1-(hydroxyimino)ethyl)isoquinolin-6-yl)-3,6,6-trimethyl-6,7-dihydro-1H-indol-4(5H)-one]
14 | < 0.5 | Cc1cn(-c2ccc3c(C)nc(N)nc3c2)c2c1C(=O)CC(C)(C)C2 [Compound 128, 1-(2-amino-4-methylquinazolin-7-yl)-3,6,6-trimethyl-6,7-dihydro-1H-indol-4(5H)-one]
15 | 0.5 to 5 | COc1cc(COc2cc(-n3cc(C)c4c3CC(C)(C)CC4=O)cc3ncnc(N)c23)cc(OC)c1 [Compound 78, 1-(4-amino-5-(3,5-dimethoxybenzyloxy)quinazolin-7-yl)-3,6,6-trimethyl-6,7-dihydro-1H-indol-4(5H)-one]
16 | < 0.5 | Cc1cn(-c2ccc3c(N)ncnc3c2SCCNCC(C)(C)C)c2c1C(=O)CC(C)(C)C2 [Compound 81, 1-(4-amino-8-(2-(neopentylamino)ethylthio)quinazolin-7-yl)-3,6,6-trimethyl-6,7-dihydro-1H-indol-4(5H)-one]
17 | 5 to 50 | Cc1nn(-c2ccc3c(N)ncc(Br)c3c2)c2c1C(=O)CC(C)(C)C2 [Compound 47, 1-(1-amino-4-bromoisoquinolin-6-yl)-3,6,6-trimethyl-6,7-dihydro-1H-indazol-4(5H)-one]
18 | < 0.5 | Cc1c2c(n(-c3ccc4c(N)ncnc4c3)c1C)CC(C)(C)CC2=O [Compound 92, 1-(4-aminoquinazolin-7-yl)-2,3,6,6-tetramethyl-6,7-dihydro-1H-indol-4(5H)-one]
19 | 0.5 to 5 | CC1(C)CC(=O)c2c(C(F)F)nn(-c3ccc4c(N)ncc(C#N)c4c3)c2C1 [Compound 94, 1-amino-6-(3-(difluoromethyl)-6,6-dimethyl-4-oxo-4,5,6,7-tetrahydro-1H-indazol-1-yl)isoquinoline-4-carbonitrile]
20 | 0.5 to 5 | Cc1cn(-c2ccc3c(N)ncnc3c2)c2c1C(=O)CC(C)(C)C2 [Compound 39, 1-(4-aminoquinazolin-7-yl)-3,6,6-trimethyl-6,7-dihydro-1H-indol-4(5H)-one]
21 | 5 to 50 | Cc1cn(-c2ccc3c(N)ncc(C(N)=O)c3c2)c2c1C(=O)CC(C)(C)C2 [Compound 104, 1-amino-6-(3,6,6-trimethyl-4-oxo-4,5,6,7-tetrahydro-1H-indol-1-yl)isoquinoline-4-carboxamide]
22 | 0.5 to 5 | Cc1cn(-c2cnc3c(N)ncnc3c2)c2c1C(=O)CC(C)(C)C2 [Compound 66, 1-(4-aminopyrido[3,2-d]pyrimidin-7-yl)-3,6,6-trimethyl-6,7-dihydro-1H-indol-4(5H)-one]
23 | 0.5 to 5 | CCCCSc1c(-n2cc(C)c3c2CC(C)(C)CC3=O)ccc2c(N)ncnc12 [Compound 54, 1-(4-amino-8-(butylthio)quinazolin-7-yl)-3,6,6-trimethyl-6,7-dihydro-1H-indol-4(5H)-one]
24 | 5 to 50 | CCCCSc1cc(-n2cc(C)c3c2CC(C)(C)CC3=O)cc2ncnc(N)c12 [Compound 73, 1-(4-amino-5-(butylthio)quinazolin-7-yl)-3,6,6-trimethyl-6,7-dihydro-1H-indol-4(5H)-one]
25 | < 0.5 | Cc1cn(-c2ccc3c(O)ncnc3c2)c2c1C(=O)CC(C)(C)C2 [Compound 90, 1-(4-hydroxyquinazolin-7-yl)-3,6,6-trimethyl-6,7-dihydro-1H-indol-4(5H)-one]
26 | 0.5 to 5 | CC(=O)c1cnc(N)c2ccc(-n3cc(C)c4c3CC(C)(C)CC4=O)cc12 [Compound 107, 1-(4-acetyl-1-aminoisoquinolin-6-yl)-3,6,6-trimethyl-6,7-dihydro-1H-indol-4(5H)-one]
27 | 0.5 to 5 | Cc1cn(-c2ccc3c(N)ncnc3c2F)c2c1C(=O)CC(C)C2 (stereo not drawn) [Compound 65, 1-(4-amino-8-fluoroquinazolin-7-yl)-3,6-dimethyl-6,7-dihydro-1H-indol-4(5H)-one]
28 | 5 to 50 | CC1(C)CC(=O)c2c(C(F)(F)F)nn(-c3ccc4c(N)ncnc4c3)c2C1 [Compound 51, 1-(4-aminoquinazolin-7-yl)-6,6-dimethyl-3-(trifluoromethyl)-6,7-dihydro-1H-indazol-4(5H)-one]
29 | 0.5 to 5 | Cc1cn(-c2ccc3c(N)ncnc3c2OC2CCOCC2)c2c1C(=O)CC(C)(C)C2 [Compound 133, 1-(4-amino-8-(tetrahydro-2H-pyran-4-yloxy)quinazolin-7-yl)-3,6,6-trimethyl-6,7-dihydro-1H-indol-4(5H)-one]
30 | 5 to 50 | Cc1cn(-c2ccc3c(N)ncnc3c2OCCN(C)C)c2c1C(=O)CC(C)(C)C2 [Compound 52, 1-(4-amino-8-(2-(dimethylamino)ethoxy)quinazolin-7-yl)-3,6,6-trimethyl-6,7-dihydro-1H-indol-4(5H)-one]
31 | 5 to 50 | CC1(C)CC(=O)c2c(CC3CC3)nn(-c3ccc4c(N)ncnc4c3)c2C1 [Compound 83, 1-(4-aminoquinazolin-7-yl)-3-(cyclopropylmethyl)-6,6-dimethyl-6,7-dihydro-1H-indazol-4(5H)-one]
32 | 0.5 to 5 | CCOc1c(-n2cc(C)c3c2CC(C)(C)CC3=O)ccc2c(N)ncnc12 [Compound 62, 1-(4-amino-8-ethoxyquinazolin-7-yl)-3,6,6-trimethyl-6,7-dihydro-1H-indol-4(5H)-one]
33 | 0.5 to 5 | Cc1cn(-c2cc(F)c3c(N)nc(N)nc3c2)c2c1C(=O)CC(C)(C)C2 [Compound 126, 1-(2,4-diamino-5-fluoroquinazolin-7-yl)-3,6,6-trimethyl-6,7-dihydro-1H-indol-4(5H)-one]

Source: US7678803B2, “Quinazoline derivatives for the treatment of cancer” (Serenex, Inc., priority 2006, dated 2010)
